# Measured values published in US10125167B2, “Compositions and methods for treating MRSA infections and for sensitizing MRSA to beta-lactam antibiotics” (Arizona Board of Regents on behalf of Arizona State …, priority 2015, dated 2018).
# Read-outs that look alike come from different tables or passages of the source.
# What was measured:
# USA100 = assay: Synergy of ASU014 with antibiotics (MIC/FIC); assay type: cell-based, S. aureus; conditions: for Antibiotic MIC, Antibiotic Only: USA100; for Antibiotic MIC +¼ MIC (ASU014) / FIC +¼ MIC (ASU014): USA100, with ¼ MIC ASU014; for Antibiotic MIC +½ MIC (ASU014) / FIC +½ MIC (ASU014): USA100, with ½ MIC ASU014; for Antibiotic MIC +⅛ MIC (ASU014) / FIC +⅛ MIC (ASU014): USA100, with ⅛ MIC ASU014
# MSSA = assay: MIC against a panel of Gram-positive and Gram-negative bacteria; assay type: cell-based, S. aureus
# [1] = system: MRSA (USA100) BEI: HFH-30123; assay: as above; assay type: cell-based; conditions: Staphylococcus aureus
# [2] = system: MRSA (USA300) BEI: FOO3/HI168; assay: as above; assay type: cell-based, Staphylococcus aureus
# [3] = system: MRSA (USA400) BEI: HFH-30364; assay: as above; assay type: cell-based, Staphylococcus aureus
# [4] = system: MRSA (USA500) BEI: HFH-30522; assay: as above; assay type: cell-based, Staphylococcus aureus
# P. aeruginosa PAO1 = assay: as above; assay type: cell-based; conditions: Pseudomonas aeruginosa
# MRSA (USA300-LAC) = assay: as above; assay type: cell-based, Staphylococcus aureus
# USA300-LAC = assay: Synergy of ASU014 with antibiotics (MIC/FIC); assay type: cell-based, S. aureus
# USA300-HI168 = assay: Synergy of ASU014 with antibiotics (MIC/FIC); assay type: cell-based, S. aureus; conditions: for Antibiotic MIC, Antibiotic Only: USA300-HI168; for Antibiotic MIC +¼ MIC (ASU014) / FIC +¼ MIC (ASU014): USA300-HI168, with ¼ MIC ASU014; for Antibiotic MIC +½ MIC (ASU014) / FIC +½ MIC (ASU014): USA300-HI168, with ½ MIC ASU014
# MSSA UAB637 = assay: Synergy of ASU014 with antibiotics (MIC/FIC); assay type: cell-based, S. aureus
# [5] = Staphylococcus aureus, read-out: MIC
# [6] = USA300-HI168, with ⅛ MIC ASU014
SMILES,"Antibiotic MIC, Antibiotic Only (USA100) [µg/mL]",Antibiotic MIC +¼ MIC (ASU014) (USA100) [µg/mL],FIC +¼ MIC (ASU014) (USA100),Antibiotic MIC +½ MIC (ASU014) (USA100) [µg/mL],FIC +½ MIC (ASU014) (USA100),Antibiotic MIC +⅛ MIC (ASU014) (USA100) [µg/mL],FIC +⅛ MIC (ASU014) (USA100),"Antibiotic MIC, Antibiotic Only (USA300-HI168) [µg/mL]",Antibiotic MIC +¼ MIC (ASU014) (USA300-HI168) [µg/mL],FIC +¼ MIC (ASU014) (USA300-HI168),Antibiotic MIC +½ MIC (ASU014) (USA300-HI168) [µg/mL],FIC +½ MIC (ASU014) (USA300-HI168),Antibiotic MIC +⅛ MIC (ASU014) (USA300-HI168; [6]) [µg/mL],also measured
"CC1(C)S[C@@H]2[C@H](NC(=O)[C@H](N)c3ccc(O)cc3)C(=O)N2[C@H]1C(=O)O [Amoxicillin, amoxicillin]",>256,32,0.38,4,0.52,>256,,,,,,,,"MIC (USA100; Staphylococcus aureus, MRSA / USA100, this MRSA strain, antibiotic alone): > 256 µg/mL"
"O=C(O)c1cn(C2CC2)c2cc(N3CCNCC3)c(F)cc2c1=O [Cipro, Ciprofloxacin]",>32,>32,,>32,,>32,,,,,,,,"MIC (MSSA; [5]): 0.25 µg/mL; MIC [1]: > 4 µg/mL; MIC [2, 5]: 0.5 µg/mL; MIC [3, 5]: 0.5 µg/mL; MIC [4, 5]: > 4 µg/mL; MIC (P. aeruginosa PAO1): 0.5 µg/mL"
"CCOc1ccc2ccccc2c1C(=O)N[C@@H]1C(=O)N2[C@@H]1SC(C)(C)[C@@H]2C(=O)O [Nafcillin, nafcillin]",32,2,0.31,2,0.56,8,0.38,,,,,,,
"Cc1onc(-c2ccccc2)c1C(=O)N[C@@H]1C(=O)N2[C@@H]1SC(C)(C)[C@@H]2C(=O)O [Oxa, oxacillin]",,8,0.31,4,0.53,64,0.63,2,0.125,0.31,0.063,0.53,0.5,"MIC (MSSA): <0.25 µg/mL; MIC [2]: 32 µg/mL; MIC (MRSA (USA300-LAC)): 64 µg/mL; MIC [3]: 8 µg/mL; MIC [4]: 8 µg/mL; Antibiotic MIC, Antibiotic Only (USA300-LAC): 64 µg/mL; Antibiotic MIC +¼ MIC (ASU014) (USA300-LAC; with ¼ MIC ASU014): 4 µg/mL; FIC +¼ MIC (ASU014) (USA300-LAC; with ¼ MIC ASU014): 0.31; Antibiotic MIC +½ MIC (ASU014) (USA300-LAC; with ½ MIC ASU014): 4 µg/mL; FIC +½ MIC (ASU014) (USA300-LAC; with ½ MIC ASU014): 0.56; Antibiotic MIC +⅛ MIC (ASU014) (USA300-LAC; with ⅛ MIC ASU014): 8 µg/mL; FIC +⅛ MIC (ASU014) (USA300-LAC; with ⅛ MIC ASU014): 0.25; FIC +⅛ MIC (ASU014) (USA300-HI168; [6]): 0.38; Antibiotic MIC, Antibiotic Only (MSSA UAB637; MSSA UAB637): 0.125 µg/mL; Antibiotic MIC +¼ MIC (ASU014) (MSSA UAB637; MSSA UAB637, with ¼ MIC ASU014): 0.125 µg/mL; Antibiotic MIC +½ MIC (ASU014) (MSSA UAB637; MSSA UAB637, with ½ MIC ASU014): 0.125 µg/mL; Antibiotic MIC +⅛ MIC (ASU014) (MSSA UAB637; MSSA UAB637, with ⅛ MIC ASU014): 0.125 µg/mL"
[H]/N=C(/N)N[C@H]1[C@H](O)[C@@H](O)[C@H](O[C@@H]2O[C@@H](C)[C@](O)(C=O)[C@H]2O[C@@H]2O[C@@H](CO)[C@H](O)[C@@H](O)[C@@H]2NC)[C@@H](N/C(N)=N\[H])[C@@H]1O [Streptomycin],,,,,,,,4,2,0.75,0.5,0.63,4,
